From paper PMC7968329, “Triazoloacridone C-1305 impairs XBP1 splicing by acting as a potential IRE1α endoribonuclease inhibitor” (Cellular & Molecular Biology Letters, 2021)

Target: T1, IRE1α (Homo sapiens, UniProt O75460)
T1 construct: gene ERN1
Experiment: ADP-Glo luminescent kinase assay with purified IRE1
Type: biochemical

T1 sequence (O75460 19-977): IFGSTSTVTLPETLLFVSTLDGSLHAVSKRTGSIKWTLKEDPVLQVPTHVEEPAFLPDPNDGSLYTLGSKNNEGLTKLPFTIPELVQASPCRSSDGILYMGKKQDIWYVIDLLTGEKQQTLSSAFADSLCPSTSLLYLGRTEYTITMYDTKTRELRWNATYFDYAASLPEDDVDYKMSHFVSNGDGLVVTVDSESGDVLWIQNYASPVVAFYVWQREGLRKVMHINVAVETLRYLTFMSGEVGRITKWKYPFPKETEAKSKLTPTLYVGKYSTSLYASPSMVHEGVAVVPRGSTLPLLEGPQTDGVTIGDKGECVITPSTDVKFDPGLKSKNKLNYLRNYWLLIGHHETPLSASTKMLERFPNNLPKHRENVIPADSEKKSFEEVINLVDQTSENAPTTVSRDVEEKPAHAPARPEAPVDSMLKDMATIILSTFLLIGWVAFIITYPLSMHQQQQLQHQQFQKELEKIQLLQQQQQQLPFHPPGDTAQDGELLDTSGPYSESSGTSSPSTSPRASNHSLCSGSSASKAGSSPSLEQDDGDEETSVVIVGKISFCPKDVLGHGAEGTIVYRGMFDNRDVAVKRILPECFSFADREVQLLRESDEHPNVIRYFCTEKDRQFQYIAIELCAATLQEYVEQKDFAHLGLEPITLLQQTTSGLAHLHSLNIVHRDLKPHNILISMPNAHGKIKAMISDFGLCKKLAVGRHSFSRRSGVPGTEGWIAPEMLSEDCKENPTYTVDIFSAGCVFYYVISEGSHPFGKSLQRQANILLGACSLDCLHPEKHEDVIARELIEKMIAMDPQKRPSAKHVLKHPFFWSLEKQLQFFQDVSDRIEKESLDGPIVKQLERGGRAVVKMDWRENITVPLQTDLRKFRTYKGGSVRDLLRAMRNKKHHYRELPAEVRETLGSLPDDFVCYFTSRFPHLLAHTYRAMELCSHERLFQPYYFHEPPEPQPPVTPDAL

Cc1cc(=O)oc2c(C=O)c(O)ccc12 [4µ8C, 7-Hydroxy-4-methyl-2-oxo-2H-chromene-8-carbaldehyde]
IC50: 31.2 µM
